Starred links: 1 amine or outer side, 2 acyl side, 3 side chain; linkers in the order of their positions; H or OH if unused. Non-standard residues stand in square brackets, D forms with d. Residues, ends and D or L forms follow the SMILES beside them. X1 = O=C(CN(C[C@H](O)[C@@H](O)[C@H](O)[C@H](O)CO)[*:1])[*:2]; dPhe(2-Cl) = N[C@H](Cc1ccccc1Cl)C(=O)O; d1Nal = N[C@H](Cc1cccc2ccccc12)C(=O)O; Chg = N[C@H](C(=O)O)C1CCCCC1
Key:
hAT1R [1] = molecular target: T1, hAT1R (Homo sapiens, UniProt P30556); assay: FLIPR calcium flux assay, Part I: agonist activity; assay type: cell-based; conditions: ChanTest hAT1R stable cells; % MPE, percent of the maximal possible effect; read-out: hAT1R Agonist Efficacy Agonist (%) Ave
T1 sequence (P30556 1-359): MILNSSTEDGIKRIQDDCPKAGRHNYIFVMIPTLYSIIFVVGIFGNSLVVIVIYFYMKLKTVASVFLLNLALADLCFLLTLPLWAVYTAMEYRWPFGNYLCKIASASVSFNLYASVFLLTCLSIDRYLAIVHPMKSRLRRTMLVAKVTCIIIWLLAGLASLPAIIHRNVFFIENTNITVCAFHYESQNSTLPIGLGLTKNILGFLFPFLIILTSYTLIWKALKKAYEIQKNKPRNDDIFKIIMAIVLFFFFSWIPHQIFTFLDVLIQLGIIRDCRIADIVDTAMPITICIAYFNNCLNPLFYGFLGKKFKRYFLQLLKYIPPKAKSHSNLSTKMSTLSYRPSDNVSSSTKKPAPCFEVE
Method: (§1) AT1 receptor (AT1R) agonists increase intracellular flux of calcium ions. AT1R antagonists can reduce the agonist effect. […] Compounds were first tested for agonism (Part I) followed by addition of the AT1R agonist angiotensin II to test for antagonist activity (Part II). This assay used a stable hAT1R expressing cell line (ChanTest hAT1R; ChanTest Corp A628). Intracellular flux of calcium in response to agonist was measured through real-time measurement of fluorescence induced through the interaction of Ca2+ (released from intracellular stores) and calcium-sensitive dye. In Part I, cells were exposed to varying concentrations of test compounds and immediately measured for agonist activity (EC50 and Efficacy).
(§2) ChanTest hAT1R stable cells were maintained in Ham's F12 containing 10% (v/v) heat inactivated fetal bovine serum (FBS-HI), 4 mM Glutamax, 1% NEAA, 50 ng/mL plasmocin, 400 μg/mL G418 at 37° C. under 5% CO2 in a humidified atmosphere.
(§3) For FLIPR assay, ChanTest hAT1R cells were trypsinized with 6 ml of Trypsin EDTA solution and harvested in phenol-red free DMEM containing 10% FBS-HI, 4 mM Glutamax and counted, spun down and resuspended in the same medium. The cell suspension was added to the wells of 384-well black PDL clear bottom plates at 2.5×10^4 cells/well, 20 μl/well.
(§4) Preparation of Loading Buffer:
(§5) • Loading Buffer: 1 vial of Calcium 5 Bulk Assay reagent was dissolved in 100 ml of 1× HBSS-20 mM Hepes buffer. • Probenecid was resuspended at 1 M in 1 M NaOH. Once the probenecid had gone into solution, an equal volume of H2O was added to make a solution of 500 mM followed by a 1:100 dilution in the Loading Buffer for a working concentration of 5 mM. The pH was adjusted to 7.4 using 1 M NaOH. Loading the Cells with Loading Buffer • Cell plates were removed from the incubator and 25 μl of Loading Buffer containing probenecid (5 mM) added to each well. • Plates were incubated for 1 hour at 37° C. under 5% CO2 in a humidified atmosphere. […] The remaining steps of the assay were carried forward by FLIPR Tetra. A baseline reading was taken at 1-second (s) intervals for 10 s followed by the addition of 5 μl of 10× compounds. The compound-induced fluorescence signal was then measured for 3 minutes with readings taken at 1-s intervals. • The cell plate was removed from the FLIPR and set aside for an additional 17 minutes. • The cell plate was then transferred back to the FLIPR Tetra, along with the 384 well Angiotensin II agonist dilution plate. A baseline reading was taken at 1-second (s) intervals for 10 seconds, followed by the addition of 5.5 μl of 10× Angiotensin II agonist. The agonist-induced fluorescence signal was then measured for 3 minutes with readings taken at 1-s intervals. • Overall, each well in the FLIPR assay was composed of the following components in a total volume of 55.5 μl:
(§6) Time-course results from the FLIPR Calcium 5 assay were expressed as relative fluorescence light units (RFU). The maximum minus minimum values (Max−Min) were used to quantify the strength of the signal. Mean RFU were calculated from replicate values and plotted on the y-axis versus compound concentration on a logarithmic scale on the x-axis, and a single-binding site, four parameter concentration response model: (MIN+((MAX−MIN)/(1+((EC50/x)^Hill)))), was used to perform non-linear regression analysis, generating concentration response curves. Reported parameters included agonist potency EC50 (the concentration causing half-maximal agonist response), antagonist potency IC50 (the concentration causing half-maximal inhibition of the agonist response for antagonist compounds) and efficacy (% MPE: percent of the maximal possible effect).

hAT1R [2] = molecular target: T1, hAT1R; assay: FLIPR calcium flux assay, Part II: antagonist activity against Angiotensin II; assay type: cell-based; conditions: for Emax: read-out: hAT1R Antagonist Efficacy Antag (%) Ave; for IC50: read-out: hAT1R Antagonist IC50 Ave; on hAT1R Antagonist Efficacy Antag (%) Ave: Angiotensin II 10 nM final concentration
Method: as §1, §2, §3, §4, §5, §6

Compound | Emax (hAT1R [1]) [%] | Emax (hAT1R [2]) [%] | IC50 (hAT1R [2]) [nM]
CNCC(=O)N[C@@H](CCCNC(=N)N)C(=O)N[C@H](C(=O)N[C@@H](Cc1ccc(O)cc1)C(=O)N[C@H](C(=O)N[C@@H](Cc1c[nH]cn1)C(=O)N1CCC[C@H]1C(=O)N[C@H](Cc1ccccc1C)C(=O)O)C(C)C)C(C)C [Compound 9, Sar-Arg-Val-Tyr-Val-His-Pro-(D-Phe(2-Me))—OH] (HELM PEPTIDE1{[Sar].R.V.Y.V.H.P.[Cc1ccccc1C[C@@H](N[*:1])C(=O)O]}$$$$V2.0) | 4 | 99 | 13.9
CNCC(=O)N[C@@H](CCCNC(=N)N)C(=O)N[C@H](C(=O)N[C@@H](Cc1ccc(O)cc1)C(=O)N[C@H](C(=O)N[C@@H](Cc1c[nH]cn1)C(=O)N1CCC[C@H]1C(=O)N[C@H](Cc1ccccc1C#N)C(=O)O)C(C)C)C(C)C [Compound 5, Sar-Arg-Val-Tyr-Val-His-Pro-(D-Phe(2-CN))—OH] (HELM PEPTIDE1{[Sar].R.V.Y.V.H.P.[N#Cc1ccccc1C[C@@H](N[*:1])C(=O)O]}$$$$V2.0) | 5 | 100 | 59.6
CNCC(=O)N[C@@H](CCCNC(=N)N)C(=O)N[C@H](C(=O)N[C@@H](Cc1ccc(O)cc1)C(=O)N[C@H](C(=O)N[C@@H](Cc1c[nH]cn1)C(=O)N1CCC[C@H]1C(=O)N[C@H](Cc1csc2ccccc12)C(=O)O)C(C)C)C(C)C [Compound 10, Sar-Arg-Val-Tyr-Val-His-Pro-(D-(3-benzothienyl)alanine)-OH] (HELM PEPTIDE1{[Sar].R.V.Y.V.H.P.[O=C(O)[C@@H](Cc1csc2ccccc12)N[*:1]]}$$$$V2.0) | 5 | 99 | 9.5
CNCC(=O)N[C@@H](CCCNC(=N)N)C(=O)N[C@H](C(=O)N[C@@H](Cc1ccc(O)cc1)C(=O)N[C@@H](Cc1cccs1)C(=O)N[C@@H](Cc1c[nH]cn1)C(=O)N1CCC[C@H]1C(=O)N[C@H](Cc1ccccc1Cl)C(=O)O)C(C)C [Compound 23, Sar-Arg-Val-Tyr-(2-Thi)-His-Pro-(D-Phe(2-Cl))—OH] (HELM PEPTIDE1{[Sar].R.V.Y.[O=C([C@H](Cc1cccs1)N[*:1])[*:2]].H.P.[O=C(O)[C@@H](Cc1ccccc1Cl)N[*:1]]}$$$$V2.0) | 4 | 98 | 5.2
CNCC(=O)N[C@@H](CCCNC(=N)N)C(=O)N[C@H](C(=O)N[C@@H](Cc1ccc(O)cc1)C(=O)N[C@H](C(=O)N[C@@H](Cc1c[nH]cn1)C(=O)N1CCC[C@H]1C(=O)N[C@H](Cc1ccccc1-c1ccccc1)C(=O)O)C1CCCCC1)C(C)C [Compound 36, Sar-Arg-Val-Tyr-Chg-His-Pro-(D-Phe(2-Ph))—OH] (HELM PEPTIDE1{[Sar].R.V.Y.[O=C([C@@H](N[*:1])C1CCCCC1)[*:2]].H.P.[O=C(O)[C@@H](Cc1ccccc1-c1ccccc1)N[*:1]]}$$$$V2.0) | 13 | 100 | 26
CNCC(=O)N[C@@H](CCCNC(=N)N)C(=O)N[C@H](C(=O)N[C@@H](Cc1ccc(O)cc1)C(=O)N[C@H](C(=O)N[C@@H](Cc1c[nH]cn1)C(=O)N1CCC[C@H]1C(=O)N[C@H](Cc1ccccc1C)C(=O)O)C1CCCCC1)C(C)C [Compound 27, Sar-Arg-Val-Tyr-Chg-His-Pro-(D-Phe(2-Me))—OH] (HELM PEPTIDE1{[Sar].R.V.Y.[O=C([C@@H](N[*:1])C1CCCCC1)[*:2]].H.P.[Cc1ccccc1C[C@@H](N[*:1])C(=O)O]}$$$$V2.0) | 8 | 100 | 14.5

The remaining compounds from weak to strong by IC50 (hAT1R [2]), led by results:

Emax (hAT1R [1]) [%] | Emax (hAT1R [2]) [%] | IC50 (hAT1R [2]) [nM] | Compound
5 | 101 | 21.9 | CC(C)[C@H](NC(=O)[C@H](CCCNC(=N)N)NC(=O)CNC[C@H](O)[C@@H](O)[C@H](O)[C@H](O)CO)C(=O)N[C@@H](Cc1ccc(O)cc1)C(=O)N[C@H](C(=O)N[C@@H](Cc1c[nH]cn1)C(=O)N1CCC[C@H]1C(=O)N[C@H](Cc1cccc2ccccc12)C(=O)O)C1CCCCC1 [Compound 40, Glac-Arg-Val-Tyr-Chg-His-Pro-(D-1Nal)-OH] (H-[X1]RVY[Chg]HP[d1Nal]-OH)
7 | 99 | 19.5 | CC(C)[C@H](NC(=O)[C@H](CCCNC(=N)N)NC(=O)CNC[C@H](O)[C@@H](O)[C@H](O)[C@H](O)CO)C(=O)N[C@@H](Cc1ccc(O)cc1)C(=O)N[C@H](C(=O)N[C@@H](Cc1c[nH]cn1)C(=O)N1CCC[C@H]1C(=O)N[C@H](Cc1cccc2ccccc12)C(=O)O)C(C)C [Compound 37, Glac-Arg-Val-Tyr-Val-His-Pro-(D-1Nal)-OH] (HELM PEPTIDE1{[O=C(CNC[C@H](O)[C@@H](O)[C@H](O)[C@H](O)CO)[*:2]].R.V.Y.V.H.P.[O=C(O)[C@@H](Cc1cccc2ccccc12)N[*:1]]}$$$$V2.0)
6 | 99 | 19.5 | CC(C)[C@H](NC(=O)[C@H](CCCNC(=N)N)NC(=O)CNC[C@H](O)[C@@H](O)[C@H](O)[C@H](O)CO)C(=O)N[C@@H](Cc1ccc(O)cc1)C(=O)N[C@H](C(=O)N[C@@H](Cc1c[nH]cn1)C(=O)N1CCC[C@H]1C(=O)N[C@H](Cc1ccccc1Cl)C(=O)O)C(C)C [Compound 29, Glac-Arg-Val-Tyr-Val-His-Pro-(D-Phe(2-Cl))—OH] (HELM PEPTIDE1{[O=C(CNC[C@H](O)[C@@H](O)[C@H](O)[C@H](O)CO)[*:2]].R.V.Y.V.H.P.[O=C(O)[C@@H](Cc1ccccc1Cl)N[*:1]]}$$$$V2.0)
5 | 101 | 18.8 | CC(C)[C@H](NC(=O)[C@H](CCCNC(=N)N)NC(=O)CNC[C@H](O)[C@@H](O)[C@H](O)[C@H](O)CO)C(=O)N[C@@H](Cc1ccc(O)cc1)C(=O)N[C@H](C(=O)N[C@@H](Cc1c[nH]cn1)C(=O)N1CCC[C@H]1C(=O)N[C@H](Cc1csc2ccccc12)C(=O)O)C(C)C [Compound 38, Glac-Arg-Val-Tyr-Val-His-Pro-(D-(3-benzothienyl)alanine)-OH] (HELM PEPTIDE1{[O=C(CNC[C@H](O)[C@@H](O)[C@H](O)[C@H](O)CO)[*:2]].R.V.Y.V.H.P.[O=C(O)[C@@H](Cc1csc2ccccc12)N[*:1]]}$$$$V2.0)
10 | 99 | 16.6 | CNCC(=O)N[C@@H](CCCNC(=N)N)C(=O)N[C@H](C(=O)N[C@@H](Cc1ccc(O)cc1)C(=O)N[C@H](C(=O)N[C@@H](Cc1c[nH]cn1)C(=O)N1CCC[C@H]1C(=O)N[C@H](Cc1ccccc1-c1ccccc1)C(=O)O)C(C)C)C(C)C [Compound 6, Sar-Arg-Val-Tyr-Val-His-Pro-(D-Phe(2-Ph))—OH] (HELM PEPTIDE1{[Sar].R.V.Y.V.H.P.[O=C(O)[C@@H](Cc1ccccc1-c1ccccc1)N[*:1]]}$$$$V2.0)
6 | 99 | 15.7 | CC(C)[C@H](NC(=O)[C@H](CCCNC(=N)N)NC(=O)CNC[C@H](O)[C@@H](O)[C@H](O)[C@H](O)CO)C(=O)N[C@@H](Cc1ccc(O)cc1)C(=O)N[C@H](C(=O)N[C@@H](Cc1c[nH]cn1)C(=O)N1CCC[C@H]1C(=O)N[C@H](Cc1ccccc1Cl)C(=O)O)C1CCCCC1 [Compound 31, Glac-Arg-Val-Tyr-Chg-His-Pro-(D-Phe(2-Cl))—OH] (H-[X1]RVY[Chg]HP[dPhe(2-Cl)]-OH)

From patent US10344054B2, “Angiotensin-1-receptor antagonists” (Ferring B.V., priority 2016, dated 2019)
